Holding throughout (format): cell-based
The test system of one assay is E. coli ATCC25922. The experiment in a line: MIC determination, broth microdilution (CLSI). As to conditions: Escherichia coli, ATCC25922, strain 1.
For the next assay, the system named is K. pneumoniae 60. The experiment in a line: MIC determination, broth microdilution (CLSI). As to conditions: Klebsiella pneumoniae, 60, strain 2.
The test system of a further assay is E. cloacae 34654. In words: MIC determination, broth microdilution (CLSI). As to conditions: Enterobacter cloacae, 34654, strain 3.
In another assay the test system is C. freundii K21/3034. In words: MIC determination, broth microdilution (CLSI). To be noted: Citrobacter freundii, K21/3034, strain 4.
The test system of another assay is M. morganii 126/3048. In words: MIC determination, broth microdilution (CLSI). To be noted: Morganella morganii, 126/3048, strain 5.
A further assay has as its system P. aeruginosa PAO1. In words: MIC determination, broth microdilution (CLSI). To be noted: Pseudomonas aeruginosa, PAO1, strain 6.
For a further assay, the system named is A. baumannii ATCC15308. The experiment in a line: MIC determination, broth microdilution (CLSI). To be noted: Acinetobacter baumannii, ATCC15308, strain 9.
In a further assay the test system is S. aureus 133. In words: MIC determination, broth microdilution (CLSI).
For a further assay, the system named is H. influenzae ATCC 49247. The experiment in a line: MIC determination, broth microdilution (CLSI). As to conditions: Haemophilus influenzae, ATCC49247, strain 12; broth microdilution; read-out: MIC strain 12 (H. influenzae ATCC 49247).
The test system of a further assay is S. pneumoniae 113. The experiment in a line: MIC determination, broth microdilution (CLSI). To be noted: Streptococcus pneumoniae, 113, strain 13; broth microdilution; read-out: MIC strain 13 (S. pneumoniae 113).
The next assay has as its system B. fragilis 6688. The experiment in a line: MIC determination, broth microdilution (CLSI). As to conditions: Bacteroides fragilis, 6688, strain 15; broth microdilution; read-out: MIC strain 15 (B. fragilis 6688).
Another assay has as its system C. perfringens DSM756. The experiment in a line: microbe, parasite or virus in culture. As to conditions: Clostridium perfringens, DSM756, read-out: MIC strain 16 (C. perfringens DSM756), strain 16; broth microdilution.
A further assay concerns E. coli J62. The experiment in a line: MIC determination, broth microdilution (CLSI). As to conditions: Escherichia coli, J62, strain 17; broth microdilution; read-out: MIC strain 17 (E. coli J62).
A further assay concerns E. coli J62-TEM-3. In words: MIC determination, broth microdilution (CLSI). As to conditions: Escherichia coli, J62TEM3, read-out: MIC strain 18 (E. coli J62-TEM-3), strain 18; broth microdilution.
In a further assay the test system is Bacteria. In words: MIC determination in combination with β-lactamase inhibitors (constant 4 μg/mL).
Assay [1] has as its system P. aeruginosa 2297 (AmpC wt). In words: MIC determination, broth microdilution (CLSI). To be noted: Pseudomonas aeruginosa, strain 7.
Where [2] appears, read: Staphylococcus aureus, 133, strain 11, read-out: strain 11 MIC.

In brackets after ≈: the same amount, converted by molar mass. Read-outs that look alike come from different tables or passages of the source.

We go through four compounds from US9556165B2 (priority 2012, dated 2017).

On to `CC1(C)[C@H](NC(=O)/C(=N\OCC(Oc2ccc(C(=N)N)cc2)C(=O)O)c2csc(N)n2)C(=O)N1OS(=O)(=O)O` (single isomer, unassigned) [Example 87A], for which the MIC came to 1 µg/mL (≈ 1.71 µM) in the assay with E. coli ATCC25922; 1 µg/mL (≈ 1.71 µM) in the assay on K. pneumoniae 60; 1 µg/mL (≈ 1.71 µM) against E. cloacae 34654; 1 µg/mL (≈ 1.71 µM) in the assay with C. freundii K21/3034; 0.25 µg/mL (≈ 0.427 µM) with M. morganii 126/3048; 32 µg/mL (≈ 54.6 µM) in the assay on P. aeruginosa PAO1. The MIC in the assay with A. baumannii ATCC15308 was 8 µg/mL (≈ 13.7 µM); in the assay on S. aureus 133 (setting [2]) it was not above 0.063 µg/mL; in the assay with H. influenzae ATCC 49247 it was 0.25 µg/mL (≈ 0.427 µM); in the assay on S. pneumoniae 113, 0.5 µg/mL (≈ 0.854 µM); in the assay on B. fragilis 6688, 32 µg/mL (≈ 54.6 µM); in the assay on C. perfringens DSM756, 8 µg/mL (≈ 13.7 µM). The MIC was 2 µg/mL (≈ 3.42 µM) in the assay on E. coli J62 and 32 µg/mL (≈ 54.6 µM) with E. coli J62-TEM-3. The “MIC strain 19 (E. coli J62-TEM-3 + 4 μg/mL clavulanic acid)” value with Bacteria amounted to 1 µg/mL. Besides, the “MIC strain 20 (E. coli J62-TEM-3 + 4 μg/mL sulbactam)” value in the assay on Bacteria came out at 1 µg/mL. Moreover, the “MIC strain 21 (E. coli J62-TEM-3 + 4 μg/mL tazobactam)” value in the assay with Bacteria turned out to be 2 µg/mL.
Regarding `C[C@H]1[C@H](NC(=O)/C(=N\OCCOc2ccc(C(=N)NCCO)cc2)c2csc(N)n2)C(=O)N1S(=O)(=O)O` [Example 69, (2S,3S)-3-({(2Z)-2-(2-Amino-1,3-thiazol-4-yl)-2-[(2-{4-[N-(2-hydroxyethyl)carbamimidoyl]-phenoxy}ethoxy)imino]acetyl}amino)-2-methyl-4-oxoazetidine-1-sulfonic acid], the MIC with E. coli ATCC25922 was determined as 0.125 µg/mL (≈ 0.225 µM); with K. pneumoniae 60, 0.25 µg/mL (≈ 0.45 µM); against E. cloacae 34654, 0.25 µg/mL (≈ 0.45 µM); in the assay on C. freundii K21/3034, 0.125 µg/mL (≈ 0.225 µM); against M. morganii 126/3048, 0.125 µg/mL (≈ 0.225 µM); in the assay with P. aeruginosa PAO1 it was 4 µg/mL (≈ 7.2 µM). For the same compound, the MIC in assay [1] was 8 µg/mL (≈ 14.4 µM); against A. baumannii ATCC15308 it was 2 µg/mL (≈ 3.6 µM); in the assay on S. aureus 133 (setting [2]), not above 0.063 µg/mL; in the assay with S. aureus 133 (Staphylococcus aureus, 133, strain 14, broth microdilution, read-out: MIC strain 14 (S. aureus 133)), 4 µg/mL (≈ 7.2 µM); in the assay on H. influenzae ATCC 49247 it was not above 0.063 µg/mL; in the assay on S. pneumoniae 113 it was not above 0.063 µg/mL. Besides, the MIC in the assay with B. fragilis 6688 is 1 µg/mL (≈ 1.8 µM); with C. perfringens DSM756 it was 1 µg/mL (≈ 1.8 µM); in the assay on E. coli J62, 0.25 µg/mL (≈ 0.45 µM); with E. coli J62-TEM-3, 16 µg/mL (≈ 28.8 µM). Further, the “MIC strain 19 (E. coli J62-TEM-3 + 4 μg/mL clavulanic acid)” value in the assay on Bacteria was 0.25 µg/mL. Besides, the “MIC strain 20 (E. coli J62-TEM-3 + 4 μg/mL sulbactam)” value with Bacteria was determined as 0.25 µg/mL. Moreover, the “MIC strain 21 (E. coli J62-TEM-3 + 4 μg/mL tazobactam)” value in the assay on Bacteria was determined as 0.25 µg/mL.
On to `N=C(N)c1ccc(OCCO/N=C(\C(=O)N[C@@H]2C(=O)N(S(=O)(=O)O)[C@@H]2C(N)=O)c2csc(N)n2)cc1` [Example 66, (2S,3S)-3-{[(2Z)-2-(2-Amino-1,3-thiazol-4-yl)-2-{[2-(4-carbamimidoylphenoxy)-ethoxy]imino}acetyl]amino}-2-carbamoyl-4-oxoazetidine-1-sulfonic acid], for which the MIC came out at 2 µg/mL (≈ 3.7 µM) in the assay with E. coli ATCC25922; 1 µg/mL (≈ 1.85 µM) against K. pneumoniae 60; 4 µg/mL (≈ 7.4 µM) against E. cloacae 34654; 2 µg/mL (≈ 3.7 µM) against C. freundii K21/3034; 2 µg/mL (≈ 3.7 µM) against M. morganii 126/3048; 32 µg/mL (≈ 59.2 µM) in the assay on P. aeruginosa PAO1. Further, the MIC was 32 µg/mL (≈ 59.2 µM) in assay [1]; 4 µg/mL (≈ 7.4 µM) against A. baumannii ATCC15308; 1 µg/mL (≈ 1.85 µM) in the assay on S. aureus 133 (setting [2]); 2 µg/mL (≈ 3.7 µM) with H. influenzae ATCC 49247; 1 µg/mL (≈ 1.85 µM) in the assay on S. pneumoniae 113; 16 µg/mL (≈ 29.6 µM) in the assay with B. fragilis 6688. Besides, the MIC in the assay with C. perfringens DSM756 stood at 16 µg/mL (≈ 29.6 µM); with E. coli J62, 2 µg/mL (≈ 3.7 µM); with E. coli J62-TEM-3, 4 µg/mL (≈ 7.4 µM). Moreover, in the assay on Bacteria, the “MIC strain 19 (E. coli J62-TEM-3 + 4 μg/mL clavulanic acid)” value came to 2 µg/mL. Further, the “MIC strain 20 (E. coli J62-TEM-3 + 4 μg/mL sulbactam)” value in the assay with Bacteria was determined as 2 µg/mL. In the assay on Bacteria, the “MIC strain 21 (E. coli J62-TEM-3 + 4 μg/mL tazobactam)” value was 2 µg/mL.
For `CC1(C)[C@H](NC(=O)/C(=N\O[C@H](COc2ccc(C(=N)NC(CN)CN)cc2)C(=O)O)c2csc(N)n2)C(=O)N1OS(=O)(=O)O` [Example 103, (2R)-2-({[(1Z)-1-(2-Amino-1,3-thiazol-4-yl)-2-{[(3S)-2,2-dimethyl-4-oxo-1-(sulfooxy)-azetidin-3-yl]amino}-2-oxoethylidene]amino}oxy)-3-{4-[N-(1,3-diaminopropan-2-yl)carbamimidoyl]phenoxy}propanoic acid], the MIC was 2 µg/mL (≈ 3.04 µM) against E. coli ATCC25922; 2 µg/mL (≈ 3.04 µM) with M. morganii 126/3048; 16 µg/mL (≈ 24.3 µM) in the assay on P. aeruginosa PAO1; 32 µg/mL (≈ 48.7 µM) in the assay on A. baumannii ATCC15308; not above 0.063 µg/mL in the assay on S. aureus 133 (setting [2]); 0.25 µg/mL (≈ 0.38 µM) in the assay with H. influenzae ATCC 49247. Also, the values for the MIC with S. pneumoniae 113 and in the assay with C. perfringens DSM756 were 4 µg/mL (≈ 6.08 µM) and 32 µg/mL (≈ 48.7 µM), respectively.
